This passage reports MIC results from DBAASP.

In brackets after ≈: the same amount, converted by molar mass.

Test in all cases: ≥ marks a high value that may be exact or a test limit, other limits are often not marked, values filed in µg/mL are converted to µM
For assay [1], the system named is Escherichia coli ATCC 25922.
In assay [2] the test system is Pseudomonas aeruginosa ATCC 27853.
Assay [3] relates to Staphylococcus aureus ATCC 25923.

In the case of `CC[C@H](C)[C@H](NC(=O)[C@H](CCCN=C(N)N)NC(=O)[C@H](CCCCN)NC(=O)[C@H](CCSC)NC(=O)[C@H](CC(C)C)NC(=O)CN)C(=O)N[C@@H](CCCCN)C(=O)N[C@H](C(=O)N[C@@H](CCSC)C(=O)N[C@@H](CC(C)C)C(N)=O)[C@@H](C)O` [GLMKRIKTML], the MIC in assay [1] was more than 200 µM.

For `CSCC[C@H](NC(=O)[C@H](CCCN=C(N)N)NC(=O)[C@H](Cc1c[nH]c2ccccc12)NC(=O)[C@H](C)NC(=O)[C@H](Cc1c[nH]c2ccccc12)NC(=O)[C@H](CCCN=C(N)N)NC(=O)[C@H](CCCN=C(N)N)NC(=O)[C@H](C)NC(=O)[C@H](CCCCN)NC(=O)[C@@H](N)Cc1ccccc1)C(=O)N[C@@H](CCCCN)C(=O)O` [FKARRWAWRMK], the MIC is 32.6 µM (≈ 50 µg/mL) in assay [1], 130 µM (≈ 200 µg/mL) in assay [2] and 32.6 µM (≈ 50 µg/mL) in assay [3]. Turning to `CSCC[C@H](NC(=O)[C@H](Cc1c[nH]c2ccccc12)NC(=O)[C@H](CC(C)C)NC(=O)[C@H](C)N)C(=O)N[C@H](C(=O)N[C@@H](CC(C)C)C(=O)N[C@@H](CC(C)C)C(=O)N[C@@H](CCCCN)C(=O)N[C@@H](CCCCN)C(=O)N[C@H](C(=O)N[C@@H](CC(C)C)C(=O)N[C@@H](CCCCN)C(=O)N[C@@H](C)C(N)=O)C(C)C)[C@@H](C)O` [ALWMTLLKKVLKA], the MIC was found to be 25 µM (≈ 37.9 µg/mL) in assay [1] and 6 µM (≈ 9.08 µg/mL) in assay [3]. The compound `CC(C)C[C@H](NC(=O)[C@H](Cc1ccccc1)NC(=O)[C@@H]1CCCN1C(=O)[C@H](Cc1c[nH]c2ccccc12)NC(=O)[C@H](Cc1c[nH]c2ccccc12)NC(=O)[C@H](Cc1ccc(O)cc1)NC(=O)[C@@H]1CCCN1C(=O)[C@H](Cc1ccccc1)NC(=O)[C@H](CCCN=C(N)N)NC(=O)[C@H](CCCN=C(N)N)NC(=O)[C@@H](N)C(C)C)C(=O)N[C@@H](CCCN=C(N)N)C(=O)N[C@@H](CCCN=C(N)N)C(N)=O` [VRRFPYWWPFLRR] displayed an MIC in assay [1] of 16 µM (≈ 30.1 µg/mL). That is a double-digit micromolar value.

As to `CC(C)[C@@H]1NC(=O)CNC(=O)[C@H](CCCN=C(N)N)NC(=O)[C@H](CCCN=C(N)N)NC(=O)[C@@H]2CSSC[C@H](NC1=O)C(=O)N[C@@H](CCCN=C(N)N)C(=O)N[C@H]1CSSC[C@H](NC(=O)[C@H](CCCN=C(N)N)NC(=O)[C@@H](NC(=O)[C@@H](NC(=O)CN)C(C)C)CSSC[C@@H](C(=O)N[C@@H](CCCN=C(N)N)C(=O)N[C@@H](CCCN=C(N)N)C(=O)O)NC(=O)[C@H](C(C)C)NC1=O)C(=O)N[C@@H](C(C)C)C(=O)N2` [GVCRCVCRRGVCRCVCRR], the MIC in assay [1] is 32 µM (≈ 66.5 µg/mL); in assay [3] it was more than 32 µM. As for `CC(C)C[C@H](NC(=O)[C@H](CC(C)C)NC(=O)[C@H](CCCN=C(N)N)NC(=O)[C@H](CC(C)C)NC(=O)[C@H](CC(C)C)NC(=O)[C@H](CCCN=C(N)N)NC(=O)[C@H](CCCN=C(N)N)NC(=O)[C@H](CC(C)C)NC(=O)[C@H](CC(C)C)NC(=O)[C@H](CCCN=C(N)N)NC(=O)[C@H](CC(C)C)NC(=O)[C@H](CC(C)C)NC(=O)[C@H](CCCN=C(N)N)NC(=O)[C@H](CC(C)C)NC(=O)[C@H](CCCN=C(N)N)NC(=O)[C@H](CC(C)C)NC(=O)[C@H](CCCN=C(N)N)NC(=O)[C@H](CCCN=C(N)N)NC(=O)[C@@H](N)CC(C)C)C(=O)O` [LRRLRLRLLRLLRRLLRLL], the MIC in assay [2] was more than 128 µM. As to `CC[C@H](C)[C@H](NC(=O)[C@H](CCCN=C(N)N)NC(=O)[C@H](CCCCN)NC(=O)[C@H](CC(C)C)NC(=O)[C@H](CC(C)C)NC(=O)[C@@H](N)CCCCN)C(=O)N[C@@H](CCCCN)C(=O)N[C@@H](CCCCN)C(=O)N[C@@H](CC(C)C)C(=O)N[C@@H](CC(C)C)C(N)=O` [KLLKRIKKLL], the MIC in assay [1] is 29.5 µM (≈ 37 µg/mL); in assay [3], 22.4 µM (≈ 28 µg/mL).

As for `NC(=O)[C@H](CCCN=C(N)N)NC(=O)[C@H](Cc1c[nH]c2ccccc12)NC(=O)[C@H](Cc1c[nH]c2ccccc12)NC(=O)[C@H](CCCN=C(N)N)NC(=O)[C@H](Cc1c[nH]c2ccccc12)NC(=O)[C@H](Cc1c[nH]c2ccccc12)NC(=O)[C@@H](N)CCCN=C(N)N` [RWWRWWR], the MIC is 8.12 µM (≈ 9.99 µg/mL) in assay [1], 6.09 µM (≈ 7.49 µg/mL) in assay [2] and 2.03 µM (≈ 2.5 µg/mL) in assay [3]. With `CC(C)[C@H](NC(=O)[C@H](CC(=O)O)NC(=O)[C@H](CO)NC(=O)[C@H](CCCCN)NC(=O)CNC(=O)[C@H](CO)NC(=O)[C@H](CO)NC(=O)[C@H](Cc1cnc[nH]1)NC(=O)[C@@H](N)CCC(N)=O)C(=O)N[C@@H](CCCN=C(N)N)C(=O)N[C@@H](CCCN=C(N)N)C(=O)N[C@@H](Cc1c[nH]c2ccccc12)C(N)=O` [QHSSGKSDVRRW], the MIC in assay [1], in assay [2] and in assay [3] was more than 100 µM each time. Consider `CC[C@H](C)[C@H](NC(=O)CN)C(=O)N[C@@H](CCSC)C(=O)N[C@@H](CC(=O)O)C(=O)N[C@H](C(=O)N[C@H](C(=O)N[C@@H](CCCCN)C(=O)N[C@@H](CC(N)=O)C(=O)N[C@@H](C)C(=O)N[C@@H](C)C(=O)N[C@@H](CCCCN)C(=O)N[C@@H](CC(=O)O)C(=O)N[C@@H](CC(C)C)C(=O)N[C@@H](C)C(=O)NCC(=O)N[C@@H](CCC(N)=O)C(=O)N[C@@H](CC(C)C)C(=O)N[C@@H](CC(C)C)C(=O)N[C@@H](CC(=O)O)C(=O)N[C@@H](CCCCN)C(=O)N[C@@H](CC(C)C)C(=O)N[C@@H](CCCCN)C(=O)N[C@H]1CSSC[C@@H](C(=O)O)NC(=O)CNC(=O)[C@H]([C@@H](C)O)NC(=O)[C@H]([C@@H](C)CC)NC(=O)[C@H](CCCN=C(N)N)NC1=O)C(C)C)[C@@H](C)O` [GIMDTVKNAAKDLAGQLLDKLKCRITGC], for which the MIC in assay [1] is 3 µM (≈ 8.92 µg/mL). In the case of `CC[C@H](C)[C@H](NC(=O)[C@H](CCCCN)NC(=O)[C@H](CC(C)C)NC(=O)[C@H](CC(C)C)NC(=O)CN)C(=O)N[C@H](C(=O)N[C@@H](CCCCN)C(=O)N[C@H](C(=O)N[C@@H](CC(C)C)C(=O)N[C@@H](CC(C)C)C(N)=O)[C@@H](C)O)[C@@H](C)CC` [GLLKIIKTLL], the MIC in assay [1] and in assay [3] was 1.8 µM (≈ 2 µg/mL) each time. `CC[C@H](C)[C@H](NC(=O)[C@H](CCCN=C(N)N)NC(=O)[C@H](CCCCN)NC(=O)[C@H](CC(C)C)NC(=O)[C@H](CC(C)C)NC(=O)CN)C(=O)N[C@@H](CCCCN)C(=O)N[C@H](C(=O)N[C@@H](CC(C)C)C(=O)N[C@@H](CC(C)C)C(N)=O)C(C)C` [GLLKRIKVLL]: the minimum inhibitory concentration (MIC) in assay [1] and in assay [3] was 19.1 µM (≈ 22 µg/mL) each time. `CC[C@H](C)[C@H](NC(=O)[C@H](CCC(=O)O)NC(=O)[C@H](C)NC(=O)[C@@H](NC(=O)[C@H](CCCCN)NC(=O)[C@H](CCCCN)NC(=O)CN)[C@@H](C)O)C(=O)N[C@@H](CCC(=O)O)C(=O)N[C@@H](CCCCN)C(=O)O` [GKKTAEIEK]: the MIC was 2490 µM (≈ 2500 µg/mL) in assay [1] and 1250 µM (≈ 1250 µg/mL) in assay [3].

As for `CC[C@H](C)[C@H](NC(=O)[C@H](Cc1ccc(O)cc1)NC(=O)[C@H](CCC(N)=O)NC(=O)[C@H](CC(C)C)NC(=O)[C@H](C)NC(=O)[C@H](CCCCN)NC(=O)[C@H](CCCCN)NC(=O)[C@H](CCSC)NC(=O)[C@H](CCCCN)NC(=O)[C@@H](N)CCCCN)C(=O)N[C@@H](CCCCN)C(=O)N[C@@H](CC(C)C)C(N)=O` [KKMKKALQYIKL], the MIC in assay [1] and in assay [2] was more than 100 µM throughout. As for `NC(=O)[C@H](Cc1c[nH]c2ccccc12)NC(=O)[C@H](CCCN=C(N)N)NC(=O)[C@H](CCCN=C(N)N)NC(=O)[C@H](CCCN=C(N)N)NC(=O)[C@H](Cc1c[nH]c2ccccc12)NC(=O)[C@@H](N)Cc1c[nH]c2ccccc12` [WWRRRW], the MIC was 23.9 µM (≈ 25 µg/mL) in assay [1] and 9.57 µM (≈ 9.99 µg/mL) in assay [3].

Take `CC[C@H](C)[C@H](NC(=O)[C@H](CCCN=C(N)N)NC(=O)[C@H](CCCCN)NC(=O)[C@H](CC(C)C)NC(=O)[C@H](CC(C)C)NC(=O)CN)C(=O)N[C@@H](CCCCN)C(=O)N[C@@H](Cc1c[nH]c2ccccc12)C(=O)N[C@@H](CC(C)C)C(=O)N[C@@H](CC(C)C)C(N)=O` [GLLKRIKWLL]: the MIC was 1.61 µM (≈ 2 µg/mL) in assay [1] and 3.23 µM (≈ 4 µg/mL) in assay [3]. Compound `CC(C)C[C@H](NC(=O)[C@H](CCC(N)=O)NC(=O)[C@H](CCCCN)NC(=O)[C@H](CCCN=C(N)N)NC(=O)[C@@H]1CCCN1C(=O)[C@H](C)N)C(=O)N[C@@H](CCCCN)C(=O)N[C@@H](Cc1c[nH]c2ccccc12)C(=O)O` [APRKQLKW] came in with an MIC in assay [1] of 7.8 µM (≈ 8 µg/mL). That is a single-digit micromolar value. As for `CC[C@H](C)[C@H](NC(=O)[C@@H](N)Cc1ccc(O)cc1)C(=O)N[C@@H](CCCCN)C(=O)N[C@@H](CC(C)C)C(=O)N[C@@H](CC(C)C)C(=O)N[C@@H](CCCCN)C(=O)N[C@@H](CCC(=O)O)C(N)=O` [YIKLLKE], the MIC in assay [1] and in assay [2] was more than 100 µM each time. `CC[C@H](C)[C@H](NC(=O)[C@H](Cc1ccccc1)NC(=O)CN)C(=O)N[C@@H](CO)C(=O)N[C@H](C(=O)N[C@H](C(=O)N[C@@H](CCCCN)C(=O)N[C@@H](CC(N)=O)C(=O)N[C@@H](CC(C)C)C(=O)N[C@@H](C)C(=O)N[C@H](C(=O)N[C@@H](CC(N)=O)C(=O)N[C@H](C(=O)N[C@@H](C)C(=O)NCC(=O)N[C@H](C(=O)N[C@H](C(=O)N[C@H](C(=O)N[C@@H](CC(=O)O)C(=O)N[C@H](C(=O)N[C@H](C(=O)N[C@@H](CCCCN)C(=O)N[C@H]1CSSC[C@@H](C(=O)O)NC(=O)CNC(=O)CNC(=O)[C@H]([C@@H](C)O)NC(=O)[C@H](C(C)C)NC(=O)[C@H](CCCCN)NC1=O)[C@@H](C)CC)[C@@H](C)O)[C@@H](C)CC)C(C)C)[C@@H](C)O)C(C)C)[C@@H](C)O)C(C)C)[C@@H](C)O` [GFISTVKNLATNVAGTVIDTIKCKVTGGC]: in assay [1], the MIC amounted to 110 µM (≈ 320 µg/mL). On to `CC(C)C[C@H](NC(=O)[C@H](CC(C)C)NC(=O)[C@H](CC(C)C)NC(=O)[C@@H]1CCCN1C(=O)[C@H](CC(C)C)NC(=O)[C@@H](N)Cc1ccccc1)C(=O)N[C@@H](C)C(=O)NCC(=O)N[C@@H](CC(C)C)C(=O)N1CCC[C@H]1C(=O)N[C@@H](CCCCN)C(=O)N[C@@H](CC(C)C)C(=O)N[C@@H](CC(C)C)C(=O)N[C@H]1CSSC[C@@H](C(=O)O)NC(=O)[C@H](CCCCN)NC(=O)[C@H](CCCCN)NC(=O)[C@H](Cc2ccccc2)NC(=O)[C@H](Cc2ccccc2)NC(=O)[C@H](CC(C)C)NC1=O` [FLPLLLAGLPKLLCLFFKKC], for which the MIC in assay [1] and in assay [3] was 15 µM (≈ 34.1 µg/mL) throughout. As for `NC(=O)[C@H](CCCN=C(N)N)NC(=O)[C@H](Cc1c[nH]c2ccccc12)NC(=O)[C@H](Cc1c[nH]c2ccccc12)NC(=O)[C@@H](N)CCCN=C(N)N` [RWWR], the minimal inhibitory concentration (MIC) in assay [1] was more than 285 µM; in assay [3] it was 142 µM (≈ 99.9 µg/mL).

As a reminder, the MIC is the lowest concentration that inhibits growth of the organism. Read a low MIC as a more susceptible organism.
